Reference: patent US20170260186A1, “PROCESS OF PREPARING AMORPHOUS FORM OF IDELALISIB” (ScinoPharm Taiwan, Ltd., priority 2016, published 2017)

Assays:
[1] = preliminary physicochemical stability study in recommended packaging; details: 3 months
Protocol: The double packed LDPE bag was then placed inside an aluminum foil bag with appropriate amount of desiccant between the LDPE bag and the aluminum foil bag. The aluminum bag package was then placed in a High-Density PolyEthylene (HDPE) container and stored at temperature below 25° C.

[2] = Dynamic Vapor Sorption (DVS) water-solid interaction; format: physicochemical
Protocol: Dynamic Vapor Sorption (DVS) The sample was placed into the DVS sample pan and dried under a stream of dry nitrogen at 25° C. with 0% RH. The moisture was gradually introduced into the system with a 10% RH increment up to 90% RH and the humidity was then decreased in a similar trend for desorption phase. The sorption and desorption data were collected with equilibration set to dm/dt 0.004%/min for 5 min/step. The minimum and maximum time for each step were set to 10 and 360 min. Two sorption/desorption cycles were performed.

[3] = accelerated condition 40° C./75% RH
[4] = long term storage condition 25° C./60% RH

solid form [1, 3]: remained as amorphous | water content change [1, 3]: not increased | solid form [1, 4]: remained as amorphous | water content change [1, 4]: not increased | hygroscopicity (DVS result) ([2]; DVS isotherm, FIG. 4): hygroscopic material | moisture uptake ([2]; DVS, humidity changing from 0% RH to 90% RH, 25° C.): approximately 8.9%
Compound: CC[C@H](Nc1ncnc2nc[nH]c12)c1nc2cccc(F)c2c(=O)n1-c1ccccc1 [amorphous idelalisib, (S)-2-(1-(9H-purin-6-ylamino)propyl)-5-fluoro-3-phenylquinazolin-4(3H)-one]
